The target of one series is KIF18A (Homo sapiens (Human), UniProt Q8NI77). As to the kind of experiment: KIF18A enzymatic activity inhibition, ADP-Glo kit. The series is classed as biochemical. Conditions: 4 nM KIF18A, 30 μM ATP. The procedure, abridged:
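KIF18A (1467) at 4 nM was preincubated with compound for 20 min at 37 °C in 15 mM Tris pH 7.5, 10 mM MgCl2, 0.01% Pluronic F-68. The reaction was started with 30 μM ATP and ran 15 min at room temperature.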

The nature of series [1]: Stability test in human liver microsomes. The format is in vitro ADME, humans. Conditions: pH 7.4, human liver microsomes 0.5 mg/mL, 1.0 μM substrate. As for the experimental part:
(§1) The phase I metabolic stability of the compounds in liver microsomes of CD-1 mice, Sprague-Dawley rats, beagle dogs, cynomolgus monkeys, and humans was assessed.
(§2) The animal and human liver microsomes used in the test system were purchased from Xenotech, Corning, or other qualified suppliers and stored in a freezer at a temperature below −60° C. prior to use.
(§3) The test samples and control compounds were separately incubated with animal and human liver microsomes at 37±1° C. for a period of incubation time up to 60 min. The samples were removed at the indicated time points, and the reaction was stopped with acetonitrile or another organic solvent containing an internal standard. After centrifugation, the resulting supernatants were assayed by the liquid chromatography-tandem mass spectrometry (LC-MS/MS) method.
(§4) 73.21 g of dipotassium hydrogen phosphate trihydrate and 10.78 g of potassium dihydrogen phosphate were dissolved in 4000 mL of ultrapure water. The solution was adjusted to pH 7.40±0.10 with 10% phosphoric acid or 1 M potassium hydroxide to make a final concentration of 100 mM.
(§5) The test sample powder was prepared into a stock solution at a certain concentration with DMSO or another organic solvent, which was then further diluted with a suitable organic solvent.
(§6) Microsomes of each species were diluted into a 2× working solution with a 100 mM potassium phosphate buffer. The final concentration of the microsomes in the reaction system was 0.5 mg/mL.
(§7) An appropriate amount of nicotinamide adenine dinucleotide phosphate (NADP) and isocitric acid (ISO) powder was weighed out, dissolved in a magnesium chloride solution, and shaken and mixed well. An appropriate amount of isocitrate dehydrogenase (IDH) was added, and the mixture was mixed well by gently turning upside down. The final concentrations in the reaction system were: 1 mM NADP, 1 mM magnesium chloride, 6 mM ISO, and 1 unit/mL IDH.
(§8) The stop solution was prepared with acetonitrile or another organic solvent containing an internal standard (tolbutamide or another suitable compound). The prepared stop solution was stored in a freezer at 2-8° C.
(§9) Incubation was performed in a 96-well plate. Eight incubation plates were prepared and designated T0, T5, T15, T30, T45, T60, Blank60, and NCF60, respectively. The first 6 plates corresponded to reaction time points of […], respectively. No test sample or control compound was added to the Blank60 plate, and samples were taken after 60 min of incubation. In the NCF60 plate, incubation was performed for 60 min using the potassium phosphate buffer instead of the NADPH regeneration system solution. Three replicates were made for samples in all conditions.
(§10) The microsomes and the test sample or control compound were mixed, and then the incubation plates Blank60, T5, T15, T30, T45, and T60 except for TO and NCF60 were placed in a 37° C. water bath for pre-incubation for about 10 min. In the incubation plate T0, a stop solution was first added, followed by addition of the NADPH regeneration system working solution, and 98 μL of the potassium phosphate buffer was added to each sample well of the incubation plate NCF60 to initiate the reaction. After the pre-incubation of the incubation plates Blank60, T5, T15, T30, T45, and T60 was completed, 98 μL of the NADPH regeneration system working solution was added to each sample well to initiate the reaction. The reaction temperature was 37±1° C., the final volume of the reaction was 200 μL, and the reaction system included 0.5 mg/mL microsomes, 1.0 μM substrate, 1 mM NADP, 6 mM ISO, and 1 unit/ml IDH.
(§11) At 5 min, 15 min, […], 45 min, and 60 min, a cold stop solution containing an internal standard was added to the reaction plate to stop the reaction.
(§12) All the reaction plates after the reaction was stopped were shaken well and centrifuged at 3220×g at 4° C. for 20 min. After the supernatant was diluted at a certain ratio, LC-MS/MS analysis was performed. […]

Series [2] in a line: Stability test in rat liver microsomes. The format is in vitro ADME, Sprague-Dawley rats. The following applies: Sprague-Dawley, pH 7.4, rat liver microsomes 0.5 mg/mL, 1.0 μM substrate. As for the experimental part:
as §1, §2, §3, §4, §5, §6, §7, §8, §9, §10, §11, §12

A short description of series [3]: Stability test in mouse liver microsomes. The format is in vitro ADME, CD-1 mice. The following applies: CD-1, pH 7.4, mouse liver microsomes 0.5 mg/mL, 1.0 μM substrate. As for the experimental part: as §1, §2, §3, §4, §5, §6, §7, §8, §9, §10, §11, §12
Series [4] deals with cytochrome oxidase P450 1A2 (Homo sapiens (Human), UniProt P05177). Put plainly: Inhibition of cytochrome oxidase P450 1A2. The format is in vitro ADME. The following applies: liver microsomes, CYP1A2.
Chain of cytochrome oxidase P450 1A2 (P05177 whole entry): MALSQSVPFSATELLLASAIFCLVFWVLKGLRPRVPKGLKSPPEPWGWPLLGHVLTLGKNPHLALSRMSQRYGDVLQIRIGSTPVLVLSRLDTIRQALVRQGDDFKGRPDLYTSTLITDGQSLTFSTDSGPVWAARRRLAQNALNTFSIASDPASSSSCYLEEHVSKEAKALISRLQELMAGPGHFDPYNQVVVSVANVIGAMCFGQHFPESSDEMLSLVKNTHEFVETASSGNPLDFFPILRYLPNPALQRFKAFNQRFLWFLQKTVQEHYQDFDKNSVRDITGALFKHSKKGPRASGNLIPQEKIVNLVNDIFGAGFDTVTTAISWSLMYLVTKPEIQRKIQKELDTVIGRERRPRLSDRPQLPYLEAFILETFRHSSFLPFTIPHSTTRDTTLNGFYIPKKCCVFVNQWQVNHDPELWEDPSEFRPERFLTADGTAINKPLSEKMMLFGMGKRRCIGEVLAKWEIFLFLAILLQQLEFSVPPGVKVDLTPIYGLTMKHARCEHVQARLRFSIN
For series [5], the target named is cytochrome oxidase P450 2C9 (Homo sapiens (Human), UniProt P11712). Put plainly: Inhibition of cytochrome oxidase P450 2C9. Conditions: liver microsomes, CYP2C9. The format is in vitro ADME. As for the experimental part:
100 mM K-Buffer: 9.5 mL of stock solution A was mixed with 40.5 mL of stock solution B, the total volume was adjusted to 500 mL with ultrapure water, and the buffer was titrated to pH 7.4 with KOH or H3PO4. The test compound powder was prepared into a stock solution at a certain concentration with DMSO or another organic solvent, which was then further diluted with a proper organic solvent. The liver microsomal in vitro incubation system for the CYP450 enzyme metabolism phenotype study was a biochemical reaction of prepared liver microsomes supplemented with a redox coenzyme and an enzyme-specific selective inhibitor under simulated physiological temperature and environment conditions. The concentration of the parent drug or a metabolite thereof in the incubation solution was determined by LC-MS/MS.

In series [6] the target is cytochrome oxidase P450 2C19 (Homo sapiens (Human), UniProt P33261). Put plainly: Inhibition of cytochrome oxidase P450 2C19. The format is in vitro ADME. The following applies: liver microsomes, CYP2C19.
Chain of cytochrome oxidase P450 2C19 (P33261 whole entry): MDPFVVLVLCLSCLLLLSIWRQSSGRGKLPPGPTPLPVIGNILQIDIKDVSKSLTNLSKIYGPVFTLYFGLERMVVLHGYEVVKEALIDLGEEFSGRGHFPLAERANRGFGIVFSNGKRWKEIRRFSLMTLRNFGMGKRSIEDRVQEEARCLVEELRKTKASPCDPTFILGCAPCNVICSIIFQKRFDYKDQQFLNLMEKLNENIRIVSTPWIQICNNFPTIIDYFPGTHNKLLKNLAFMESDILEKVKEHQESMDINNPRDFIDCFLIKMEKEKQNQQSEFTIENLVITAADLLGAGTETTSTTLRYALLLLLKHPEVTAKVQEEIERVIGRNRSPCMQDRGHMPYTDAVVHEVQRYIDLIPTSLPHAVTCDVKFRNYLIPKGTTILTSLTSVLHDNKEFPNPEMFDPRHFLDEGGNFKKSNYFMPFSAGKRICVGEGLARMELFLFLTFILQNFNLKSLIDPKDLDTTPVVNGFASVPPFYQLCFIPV
The target of series [7] is cytochrome oxidase P450 3A4 (Homo sapiens (Human), UniProt P08684). Put plainly: Inhibition of cytochrome oxidase P450 3A4 (Midazolam). The format is in vitro ADME. The following applies: liver microsomes, CYP3A4, Midazolam.
Chain of cytochrome oxidase P450 3A4 (P08684 whole entry): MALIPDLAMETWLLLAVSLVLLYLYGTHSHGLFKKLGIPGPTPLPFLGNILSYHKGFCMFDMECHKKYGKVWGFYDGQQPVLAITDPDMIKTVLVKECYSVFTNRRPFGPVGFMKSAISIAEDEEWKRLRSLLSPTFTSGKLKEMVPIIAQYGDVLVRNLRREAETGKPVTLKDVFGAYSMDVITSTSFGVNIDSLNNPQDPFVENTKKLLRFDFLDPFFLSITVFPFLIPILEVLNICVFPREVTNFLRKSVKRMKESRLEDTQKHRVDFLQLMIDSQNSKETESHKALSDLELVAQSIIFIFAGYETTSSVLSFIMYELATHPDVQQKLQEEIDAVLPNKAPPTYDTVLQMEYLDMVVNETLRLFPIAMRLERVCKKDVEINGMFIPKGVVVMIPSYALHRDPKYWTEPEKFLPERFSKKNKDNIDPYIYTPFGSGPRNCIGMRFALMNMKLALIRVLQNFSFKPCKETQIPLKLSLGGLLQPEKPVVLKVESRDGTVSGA

Chain of cytochrome oxidase P450 2C9 (P11712 whole entry): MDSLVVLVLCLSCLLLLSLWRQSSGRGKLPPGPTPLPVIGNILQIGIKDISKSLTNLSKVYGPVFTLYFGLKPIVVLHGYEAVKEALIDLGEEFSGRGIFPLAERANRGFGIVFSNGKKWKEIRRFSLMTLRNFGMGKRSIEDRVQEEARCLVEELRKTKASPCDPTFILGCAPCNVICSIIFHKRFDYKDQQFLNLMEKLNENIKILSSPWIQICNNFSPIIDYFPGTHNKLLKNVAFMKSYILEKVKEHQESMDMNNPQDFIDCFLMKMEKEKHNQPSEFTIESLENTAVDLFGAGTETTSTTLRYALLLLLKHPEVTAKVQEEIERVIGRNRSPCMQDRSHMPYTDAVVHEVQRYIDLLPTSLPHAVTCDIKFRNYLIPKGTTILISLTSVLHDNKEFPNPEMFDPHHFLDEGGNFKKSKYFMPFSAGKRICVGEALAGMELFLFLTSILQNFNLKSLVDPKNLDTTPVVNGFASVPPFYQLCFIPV
Chain of KIF18A (Q8NI77 1-467): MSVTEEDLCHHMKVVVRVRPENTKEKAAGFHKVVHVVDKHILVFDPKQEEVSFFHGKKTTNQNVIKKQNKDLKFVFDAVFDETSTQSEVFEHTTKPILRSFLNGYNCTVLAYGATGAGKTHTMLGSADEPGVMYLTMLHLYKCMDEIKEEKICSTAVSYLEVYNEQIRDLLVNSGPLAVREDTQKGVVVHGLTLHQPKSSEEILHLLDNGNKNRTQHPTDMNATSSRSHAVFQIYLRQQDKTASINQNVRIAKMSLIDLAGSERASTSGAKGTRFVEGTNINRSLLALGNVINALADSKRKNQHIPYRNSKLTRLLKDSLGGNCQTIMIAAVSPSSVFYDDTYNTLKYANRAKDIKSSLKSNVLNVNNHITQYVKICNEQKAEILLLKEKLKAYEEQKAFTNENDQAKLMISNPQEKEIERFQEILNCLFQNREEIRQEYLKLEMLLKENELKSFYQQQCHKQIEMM

With `O=C(Nc1cn2ccnc2c(N2CCC(F)(F)CC2)n1)c1ccc(NS(=O)(=O)CCO)cc1N1CCC2(CC1)CC2` [Compound 8], the IC50 against KIF18A was 21.3 nM; in series [4], above 10000 nM; in series [5], 2660 nM; in series [6] it was above 10000 nM; in series [7], above 10000 nM. Moreover, the CLint scaled at 1 μM is below 8.6 mL/min/kg in series [1] (read-out: HLM 0.5 CLint(liver)), below 17.3 mL/min/kg in series [2] (read-out: RLM 0.5 CLint(liver)) and 219 mL/min/kg in series [3] (read-out: MLM 0.5 CLint(liver)). For the same molecule, the half-life at 1 μM in series [1] (read-out: HLM 0.5 T½) was above 2.42 h; in series [2] (read-out: RLM 0.5 T½), above 2.42 h; in series [3] (read-out: MLM 0.5 T½), 0.418 h.

For the origin of these results see patent publication US20250382298A1, “NITROGEN-CONTAINING COMPOUND AND USE THEREOF” (SUZHOU GENHOUSE BIO CO., LTD., priority 2022, published 2025).
